Experimental data: ChEMBL document CHEMBL1687752, “Impact of antifungal prophylaxis on colonization and azole susceptibility of Candida species” (2009)

Experiments:
Format in all cases: functional
[1] = test system: Nakaseomyces glabratus; test: Antifungal activity against 1 day cultured Candida glabrata isolated from HSCT recipient with acute or chronic GVHD mouth after 17 days of prophylaxis by broth microdilution method
[2] = test system: Nakaseomyces glabratus; test: Antifungal activity against 7 days cultured Candida glabrata isolated from neutropenic subject with AML or MDS stool receiving antifungal therapy for 37 days after 9 days of prophylaxis by broth microdilution method
[3] = test system: Nakaseomyces glabratus; test: Antifungal activity against 1 day cultured Candida glabrata isolated from neutropenic subject with AML or MDS stool receiving antifungal therapy for 25 days after 3 days of prophylaxis by broth microdilution method
[4] = test system: Nakaseomyces glabratus; test: Antifungal activity against Candida glabrata isolated from neutropenic subjects with AML or MDS prior to initiation of fluconazole therapy assessed as maximum MIC by broth microdilution method
[5] = test system: Nakaseomyces glabratus; test: Antifungal activity against 88 days cultured Candida glabrata isolated from HSCT recipient with acute or chronic GVHD mouth receiving antifungal therapy for 75 days after 33 days of prophylaxis by broth microdilution method
[6] = test system: Nakaseomyces glabratus; test: Antifungal activity against Candida glabrata isolated from neutropenic subject 1187 with AML or MDS stool after 22 days prophylaxis by broth microdilution method; conditions: 528 h
[7] = test system: Pichia kudriavzevii; test: Antifungal activity against Candida krusei isolated from HSCT recipients with acute or chronic GVHD receiving fluconazole assessed as maximum MIC by broth microdilution method
[8] = test system: Nakaseomyces glabratus; test: Antifungal activity against Candida glabrata isolated from neutropenic subject 1491 with AML or MDS pharynx receiving antifungal drug after 23 days prophylaxis by broth microdilution method; conditions: 552 h
[9] = test system: Nakaseomyces glabratus; test: Antifungal activity against Candida glabrata isolated from neutropenic subject 1331 with AML or MDS pharynx after 21 days prophylaxis by broth microdilution method; conditions: 504 h
[10] = test system: Nakaseomyces glabratus; test: Antifungal activity against Candida glabrata isolated from neutropenic subject 1491 with AML or MDS pharynx after 23 days prophylaxis by broth microdilution method; conditions: 552 h
[11] = test system: Nakaseomyces glabratus; test: Antifungal activity against 42 days cultured Candida glabrata isolated from neutropenic subject with AML or MDS stool after 48 days of prophylaxis by broth microdilution method
[12] = test system: Pichia kudriavzevii; test: Antifungal activity against Candida krusei isolated from HSCT recipients with acute or chronic GVHD receiving fluconazole by broth microdilution method
[13] = test system: Nakaseomyces glabratus; test: Antifungal activity against Candida glabrata isolated from HSCT recipient 186 with acute or chronic GVHD mouth receiving antifungal drug after 112 days prophylaxis by broth microdilution method
[14] = test system: Candida albicans; test: Antifungal activity against Candida albicans isolated from neutropenic subjects with AML or MDS receiving posaconazole by broth microdilution method
[15] = test system: Nakaseomyces glabratus; test: Antifungal activity against Candida glabrata isolated from HSCT recipients with acute or chronic GVHD prior to initiation of posaconazole therapy by broth microdilution method
[16] = test system: Candida albicans; test: Antifungal activity against Candida albicans isolated from HSCT recipients with acute or chronic GVHD receiving posaconazole by broth microdilution method
[17] = test system: Nakaseomyces glabratus; test: Antifungal activity against Candida glabrata isolated from HSCT recipient 497 with acute or chronic GVHD mouth after 114 days prophylaxis by broth microdilution method
[18] = test system: Candida albicans; test: Antifungal activity against Candida albicans isolated from neutropenic subjects with AML or MDS receiving fluconazole assessed as maximum MIC by broth microdilution method
[19] = test system: Candida albicans; test: Antifungal activity against Candida albicans isolated from HSCT recipients with acute or chronic GVHD receiving fluconazole by broth microdilution method
[20] = test system: Nakaseomyces glabratus; test: Antifungal activity against Candida glabrata isolated from neutropenic subject 1497 with AML or MDS pharynx after 61 days prophylaxis by broth microdilution method
[21] = test system: Candida albicans; test: Antifungal activity against 1 day cultured Candida albicans isolated from HSCT recipient with acute or chronic GVHD mouth after 2 days of prophylaxis by broth microdilution method
[22] = test system: Pichia kudriavzevii; test: Antifungal activity against Candida krusei isolated from HSCT recipients with acute or chronic GVHD prior to initiation of posaconazole therapy assessed as maximum MIC by broth microdilution method
[23] = test system: Nakaseomyces glabratus; test: Antifungal activity against 23 days cultured Candida glabrata isolated from neutropenic subject with AML or MDS stool receiving antifungal therapy for 25 days after 3 days of prophylaxis by broth microdilution method
[24] = test system: Nakaseomyces glabratus; test: Antifungal activity against Candida glabrata isolated from HSCT recipient 491 with acute or chronic GVHD mouth receiving antifungal drug after 112 days prophylaxis by broth microdilution method
[25] = test system: Nakaseomyces glabratus; test: Antifungal activity against Candida glabrata isolated from HSCT recipient 474 with acute or chronic GVHD mouth after 124 days prophylaxis by broth microdilution method
[26] = test system: Nakaseomyces glabratus; test: Antifungal activity against Candida glabrata isolated from neutropenic subjects with AML or MDS receiving fluconazole assessed as maximum MIC by broth microdilution method
[27] = test system: Nakaseomyces glabratus; test: Antifungal activity against Candida glabrata isolated from HSCT recipients with acute or chronic GVHD prior to initiation of fluconazole therapy by broth microdilution method
[28] = test system: Nakaseomyces glabratus; test: Antifungal activity against Candida glabrata isolated from neutropenic subjects with AML or MDS prior to initiation of posaconazole therapy by broth microdilution method
[29] = test system: Pichia kudriavzevii; test: Antifungal activity against 19 days cultured Candida krusei isolated from invasive fungal infected subject blood receiving antifungal therapy for 19 days after 6 days of prophylaxis by broth microdilution method
[30] = test system: Pichia kudriavzevii; test: Antifungal activity against 6 days cultured Candida krusei isolated from neutropenic subject with AML or MDS pharynx receiving antifungal therapy for 19 days after 6 days of prophylaxis by broth microdilution method
[31] = test system: Candida albicans; test: Antifungal activity against Candida albicans isolated from neutropenic subjects with AML or MDS prior to initiation of posaconazole therapy assessed as maximum MIC by broth microdilution method
[32] = test system: Nakaseomyces glabratus; test: Antifungal activity against 177 days cultured Candida glabrata isolated from HSCT recipient with acute or chronic GVHD mouth receiving antifungal therapy for 172 days after 114 days of prophylaxis by broth microdilution method
[33] = test system: Candida tropicalis; test: Antifungal activity against -3 days cultured Candida tropicalis isolated from neutropenic subject with AML or MDS stool receiving antifungal therapy for 45 days after 24 days of prophylaxis by broth microdilution method
[34] = test system: Candida albicans; test: Antifungal activity against Candida albicans isolated from HSCT recipients with acute or chronic GVHD prior to initiation of posaconazole therapy assessed as maximum MIC by broth microdilution method
[35] = test system: Pichia kudriavzevii; test: Antifungal activity against 14 days cultured Candida krusei isolated from neutropenic subject with AML or MDS stool after 12 days of prophylaxis by broth microdilution method
[36] = test system: Nakaseomyces glabratus; test: Antifungal activity against -2 days cultured Candida glabrata isolated from HSCT recipient with acute or chronic GVHD mouth receiving antifungal therapy for 168 days after 113 days of prophylaxis by broth microdilution method
[37] = test system: Nakaseomyces glabratus; test: Antifungal activity against 10 days cultured Candida glabrata isolated from neutropenic subject with AML or MDS stool receiving antifungal therapy for 37 days after 9 days of prophylaxis by broth microdilution method
[38] = test system: Nakaseomyces glabratus; test: Antifungal activity against Candida glabrata isolated from HSCT recipients with acute or chronic GVHD receiving posaconazole by broth microdilution method
[39] = test system: Candida albicans; test: Antifungal activity against Candida albicans isolated from HSCT recipient 301 with acute or chronic GVHD mouth after 114 days prophylaxis by broth microdilution method

OC(Cn1cncn1)(Cn1cncn1)c1ccc(F)cc1F [FLUCONAZOLE]
4 µg/mL: MIC [10] | MIC [23] | MIC50 [28]
> 64 µg/mL: MIC [1] | MIC [5] | MIC [8]
64 µg/mL: MIC [4] | MIC [7] | MIC50 [12] | MIC90 [12] | MIC90 [15] | MIC [18] | MIC90 [19] | MIC [22] | MIC90 [27] | MIC [34] | MIC [35] | MIC [36] | MIC50 [38] | MIC90 [38]
32 µg/mL: MIC [13] | MIC [24] | MIC [29] | MIC [30] | MIC [32]
8 µg/mL: MIC [2] | MIC [9] | MIC [11] | MIC [37]
2 µg/mL: MIC [20] | MIC [31]
0.25 µg/mL: MIC50 [14] | MIC90 [14] | MIC50 [16] | MIC [33]
1 µg/mL: MIC50 [19]
< 0.125 µg/mL: MIC [39]
< 0.12 µg/mL: MIC [21]
16 µg/mL: MIC [3] | MIC [6] | MIC50 [15] | MIC90 [16] | MIC [17] | MIC [25] | MIC [26] | MIC50 [27] | MIC90 [28]

CC[C@@H]([C@H](C)O)n1ncn(-c2ccc(N3CCN(c4ccc(OC[C@@H]5CO[C@@](Cn6cncn6)(c6ccc(F)cc6F)C5)cc4)CC3)cc2)c1=O [POSACONAZOLE]
> 8 µg/mL: MIC [1]
2 µg/mL: MIC [5] | MIC [9] | MIC [13] | MIC [24] | MIC [26] | MIC90 [28] | MIC50 [38]
4 µg/mL: MIC [3] | MIC90 [15]
0.12 µg/mL: MIC90 [16]
< 0.015 µg/mL: MIC [33] | MIC [39]
1 µg/mL: MIC [2] | MIC [7] | MIC [11] | MIC50 [27] | MIC [32] | MIC [36] | MIC [37]
8 µg/mL: MIC [4] | MIC [8] | MIC [18] | MIC90 [27] | MIC90 [38]
0.25 µg/mL: MIC50 [12] | MIC [25] | MIC50 [28]
16 µg/mL: MIC90 [19] | MIC [34]
0.03 µg/mL: MIC50 [16] | MIC50 [19] | MIC [20]
0.125 µg/mL: MIC [23] | MIC [35]
0.5 µg/mL: MIC [6] | MIC [10] | MIC90 [12] | MIC50 [15] | MIC [17] | MIC [22]
< 0.03 µg/mL: MIC [21]
0.06 µg/mL: MIC [29] | MIC [30] | MIC [31]
0.015 µg/mL: MIC50 [14] | MIC90 [14]

CCC(C)n1ncn(-c2ccc(N3CCN(c4ccc(OCC5COC(Cn6cncn6)(c6ccc(Cl)cc6Cl)O5)cc4)CC3)cc2)c1=O (stereo unspecified) [ITRACONAZOLE]
0.03 µg/mL: MIC90 [14] | MIC50 [16] | MIC50 [19] | MIC [31] | MIC [33]
< 0.015 µg/mL: MIC [39]
8 µg/mL: MIC [3] | MIC [4] | MIC [8] | MIC90 [15] | MIC [18] | MIC [26] | MIC90 [28] | MIC90 [38]
2 µg/mL: MIC [5] | MIC [13] | MIC [24] | MIC50 [27] | MIC [37] | MIC50 [38]
> 8 µg/mL: MIC [1]
16 µg/mL: MIC [7] | MIC90 [12] | MIC90 [19] | MIC [22] | MIC90 [27] | MIC [34]
0.5 µg/mL: MIC50 [12] | MIC [30]
0.06 µg/mL: MIC [20]
< 0.03 µg/mL: MIC [21]
0.015 µg/mL: MIC50 [14]
0.25 µg/mL: MIC90 [16] | MIC50 [28] | MIC [29] | MIC [35]
4 µg/mL: MIC [25]
1 µg/mL: MIC [2] | MIC [6] | MIC [9] | MIC [10] | MIC [11] | MIC50 [15] | MIC [17] | MIC [32] | MIC [36]
0.125 µg/mL: MIC [23]
